The structures appear in SMILES notation.

T1 sequence (Q01718 whole entry): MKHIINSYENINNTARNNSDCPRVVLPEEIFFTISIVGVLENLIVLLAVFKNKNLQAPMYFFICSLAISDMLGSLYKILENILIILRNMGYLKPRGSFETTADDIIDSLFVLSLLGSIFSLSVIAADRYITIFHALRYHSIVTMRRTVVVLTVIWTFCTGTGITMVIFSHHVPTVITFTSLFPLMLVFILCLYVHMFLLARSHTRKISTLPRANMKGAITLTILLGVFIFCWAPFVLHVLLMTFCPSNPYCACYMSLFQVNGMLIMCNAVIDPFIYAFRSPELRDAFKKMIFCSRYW
T1 sequence (Q8TCY5 whole entry partner): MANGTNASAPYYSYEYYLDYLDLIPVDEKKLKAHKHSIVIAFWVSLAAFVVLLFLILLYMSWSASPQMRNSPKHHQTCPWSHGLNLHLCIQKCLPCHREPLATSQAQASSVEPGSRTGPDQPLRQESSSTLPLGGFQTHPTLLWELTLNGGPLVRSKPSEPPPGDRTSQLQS

This assay concerns the target T1, human MC2R (Homo sapiens, UniProt Q01718).
T1 construct: host or cells: GeneBLAzer MC2R-CRE-bla CHO-K1 cells
As to the kind of experiment: Measurement of human MC2R inhibitory activity using intracellular cAMP concentration as an indicator. It is filed as cell-based. The following applies: test compound at 1 µM; GeneBLAzer MC2R-CRE-bla CHO-K1 cells; ACTH (Human 1-24) final concentration 3 pM; intracellular cAMP by HTRF; read-out: MC2R inhibition rate (% of inhibition). The protocol:
Experimental Example 1: Measurement of human MC2R inhibitory activity using intracellular cAMP concentration as an indicator
GeneBLAzer MC2R-CRE-bla CHO-K1 cells (Thermo Fisher Scientific) that had been cryopreserved in advance were thawed and suspended in a medium [Dulbecco's Modified Eagle Medium (Thermo Fisher Scientific) containing fetal bovine serum (10% (v/v), HyClone Laboratories), Non-Essential Amino Acids Solution (1/100 (w/w), Thermo Fisher Scientific), HEPES (25 mM, Thermo Fisher Scientific), Penicillin/Streptomycin (1/100 (w/w), Fujifilm Wako)]. After centrifuging the cell suspension, the supernatant was removed, the cells were suspended in D-PBS(-) (Fujifilm Wako), and the supernatant was removed again after centrifugation. The cells were resuspended in an assay buffer [Hank's Balanced Salt Solution (Thermo Fisher Scientific) containing HEPES pH 7.5 (10 mM, Thermo Fisher Scientific), fatty acid-free bovine serum albumin (0.01% (w/v), Sigma), IBMX (500 µM, Fujifilm Wako)] and added to a 384-well white plate (Greiner) at 1,500 cells/well. Then, the test compound prepared using the assay buffer was added, and after standing for 20 min, an assay buffer containing ACTH (Human 1-24) (Peptide Institute) was added (ACTH final concentration, 3 pM). After standing at room temperature for 30 min, the intracellular cAMP level was measured using cAMP Gs HiRange kit HTRF (PerkinElmer). The inhibition rate (%) of the compound against MC2R was calculated using the following formula. Inhibition rate (%) = […] [formula] • A: cAMP concentration calculated from wells containing 3 pM ACTH (1-24) • B: cAMP concentration calculated from wells without addition of 3 pM ACTH (1-24) • C: cAMP concentration calculated from wells containing 3 pM ACTH (1-24) and test compound at concentration determined in advance
Turning to `CCOc1ncccc1-c1ccc(N2CCN3C(=O)N(c4ccc(Cl)cc4C(F)(F)F)CC3C2)c(C=O)n1` (centres unmarked) [Example 1, 3-[2-[4-chloro-2-(trifluoromethyl)phenyl]-3-oxo-5,6,8,8a-tetrahydro-1H-imidazo[1,5-a]pyrazin-7-yl]-6-(2-ethoxypyridin-3-yl)pyridine-2-carbaldehyde], the inhibition at 1 µM is 100%.
Turning to `CCOc1ncccc1-c1ccc(N2CCN3C(=O)N(c4ccc(Cl)cc4C(F)(F)F)CC3C2)c(C(N)=O)n1` (centres unmarked) [Example 2, 3-[2-[4-chloro-2-(trifluoromethyl)phenyl]-3-oxo-5,6,8,8a-tetrahydro-1H-imidazo[1,5-a]pyrazin-7-yl]-6-(2-ethoxypyridin-3-yl)pyridine-2-carboxamide], the inhibition at 1 µM amounted to 99%.
The figure for `CCOc1ncccc1-c1ccc(N2CCN3C(=O)N(C4(C(F)(F)F)CCCC4)CC3C2)c(C(N)=O)n1` (centres unmarked) [Example 3, 6-(2-ethoxypyridin-3-yl)-3-[3-oxo-2-[1-(trifluoromethyl)cyclopentyl]-5,6,8,8a-tetrahydro-1H-imidazo[1,5-a]pyrazin-7-yl]pyridine-2-carboxamide] is 81%; for `CCOc1ncccc1-c1ccc(N2CCN3C(=O)N(c4ccc(Cl)cc4C(F)(F)F)CC3C2)c(C(=O)NCCN(C)C)n1` (centres unmarked) [Example 4, 3-[2-[4-chloro-2-(trifluoromethyl)phenyl]-3-oxo-5,6,8,8a-tetrahydro-1H-imidazo[1,5-a]pyrazin-7-yl]-N-[2-(dimethylamino)ethyl]-6-(2-ethoxypyridin-3-yl)pyridine-2-carboxamide] it is 100%.
The result for `CCOc1ncccc1-c1ccc(N2CCN3C(=O)N(c4ccc(Cl)cc4C(F)(F)F)C[C@@H]3C2)c(C=O)n1` [Example 5, 3-[(8aS)-2-[4-chloro-2-(trifluoromethyl)phenyl]-3-oxo-5,6,8,8a-tetrahydro-1H-imidazo[1,5-a]pyrazin-7-yl]-6-(2-ethoxypyridin-3-yl)pyridine-2-carbaldehyde] reads 100%; that for `CCOc1ncccc1-c1ccc(N2CCN3C(=O)N(c4ccc(Cl)cc4C(F)(F)F)C[C@@H]3C2)c(C(=O)NCCN(C)C)n1` [Example 6, 3-[(8aS)-2-[4-chloro-2-(trifluoromethyl)phenyl]-3-oxo-5,6,8,8a-tetrahydro-1H-imidazo[1,5-a]pyrazin-7-yl]-N-[2-(dimethylamino)ethyl]-6-(2-ethoxypyridin-3-yl)pyridine-2-carboxamide], 100%; that for `CCOc1ncccc1-c1ccc(N2CCN3C(=O)N(c4ccc(Cl)cc4C(F)(F)F)C[C@H]3C2)c(C=O)n1` [Example 7, 3-[(8aR)-2-[4-chloro-2-(trifluoromethyl)phenyl]-3-oxo-5,6,8,8a-tetrahydro-1H-imidazo[1,5-a]pyrazin-7-yl]-6-(2-ethoxypyridin-3-yl)pyridine-2-carbaldehyde], 91%.
With `CCOc1ncccc1-c1ccc(N2CCN3C(=O)N(c4ccc(Cl)cc4C(F)(F)F)C[C@H]3C2)c(C(=O)NCCN(C)C)n1` [Example 8, 3-[(8aR)-2-[4-chloro-2-(trifluoromethyl)phenyl]-3-oxo-5,6,8,8a-tetrahydro-1H-imidazo[1,5-a]pyrazin-7-yl]-N-[2-(dimethylamino)ethyl]-6-(2-ethoxypyridin-3-yl)pyridine-2-carboxamide], the inhibition at 1 µM came to 90%.
With `CCOc1ncccc1-c1ccc(N2CCN3C(=O)N(c4ccc(Cl)cc4C(F)(F)F)CC3(C)C2)c(C=O)n1` (centres unmarked) [Example 9, 3-[2-[4-chloro-2-(trifluoromethyl)phenyl]-8a-methyl-3-oxo-1,5,6,8-tetrahydroimidazo[1,5-a]pyrazin-7-yl]-6-(2-ethoxypyridin-3-yl)pyridine-2-carbaldehyde], the inhibition at 1 µM was 99%.
In the case of `CCOc1ncccc1-c1ccc(N2C[C@H]3CN(c4ccc(Cl)cc4C(F)(F)F)C(=O)N3C[C@H]2CC)c(C=O)n1` [Example 10, 3-[(6R,8aS)-2-[4-chloro-2-(trifluoromethyl)phenyl]-6-ethyl-3-oxo-5,6,8,8a-tetrahydro-1H-imidazo[1,5-a]pyrazin-7-yl]-6-(2-ethoxypyridin-3-yl)pyridine-2-carbaldehyde], the inhibition at 1 µM was 100%.
The figure for `CCOc1ncccc1-c1ccc(N2CCN3C(=O)N(c4ccc(Cl)cc4C(F)(F)F)C[C@@H]3C2)c(C(=O)NCC2CCOCC2)n1` [Example 11, 3-[(8aS)-2-[4-chloro-2-(trifluoromethyl)phenyl]-3-oxo-5,6,8,8a-tetrahydro-1H-imidazo[1,5-a]pyrazin-7-yl]-6-(2-ethoxypyridin-3-yl)-N-(oxan-4-ylmethyl)pyridine-2-carboxamide] is 97%; for `CCOc1ncccc1-c1ccc(N2CCN3C(=O)N(c4ccc(Cl)cc4C(F)(F)F)C[C@@H]3C2)c(C(=O)NCCOC)n1` [Example 12, 3-[(8aS)-2-[4-chloro-2-(trifluoromethyl)phenyl]-3-oxo-5,6,8,8a-tetrahydro-1H-imidazo[1,5-a]pyrazin-7-yl]-6-(2-ethoxypyridin-3-yl)-N-(2-methoxyethyl)pyridine-2-carboxamide] it is 100%; for `CCOc1ncccc1-c1ccc(N2CCN3C(=O)N(c4ccc(Cl)cc4C(F)(F)F)C[C@@H]3C2)c(C(=O)NCCC2CCOCC2)n1` [Example 13, 3-[(8aS)-2-[4-chloro-2-(trifluoromethyl)phenyl]-3-oxo-5,6,8,8a-tetrahydro-1H-imidazo[1,5-a]pyrazin-7-yl]-6-(2-ethoxypyridin-3-yl)-N-[2-(oxan-4-yl)ethyl]pyridine-2-carboxamide] it is 99%.
The result for `CCOc1ncccc1-c1ccc(N2CCN3C(=O)N(c4ccc(Cl)cc4C(F)(F)F)C[C@@H]3C2)c(C(=O)NCCCc2ccccn2)n1` [Example 14, 3-[(8aS)-2-[4-chloro-2-(trifluoromethyl)phenyl]-3-oxo-5,6,8,8a-tetrahydro-1H-imidazo[1,5-a]pyrazin-7-yl]-6-(2-ethoxypyridin-3-yl)-N-(3-pyridin-2-ylpropyl)pyridine-2-carboxamide] reads 100%; that for `CCOc1ncccc1-c1ccc(N2CCN3C(=O)N(c4ccc(Cl)cc4C(F)(F)F)C[C@@H]3C2)c(C(=O)NCC2(O)COC2)n1` [Example 15, 3-[(8aS)-2-[4-chloro-2-(trifluoromethyl)phenyl]-3-oxo-5,6,8,8a-tetrahydro-1H-imidazo[1,5-a]pyrazin-7-yl]-6-(2-ethoxypyridin-3-yl)-N-[(3-hydroxyoxetan-3-yl)methyl]pyridine-2-carboxamide], 100%; that for `CCOc1ncccc1-c1ccc(N2CCN3C(=O)N(c4ccc(Cl)cc4C(F)(F)F)C[C@@H]3C2)c(C(=O)NCC2(O)CC2)n1` [Example 16, 3-[(8aS)-2-[4-chloro-2-(trifluoromethyl)phenyl]-3-oxo-5,6,8,8a-tetrahydro-1H-imidazo[1,5-a]pyrazin-7-yl]-6-(2-ethoxypyridin-3-yl)-N-[(1-hydroxycyclopropyl)methyl]pyridine-2-carboxamide], 100%.
The figure for `CCOc1ncccc1-c1ccc(N2CCN3C(=O)N(c4ccc(Cl)cc4C(F)(F)F)C[C@@H]3C2)c(C(=O)NC2CCN(C(=O)OC(C)(C)C)C2)n1` (stereo partly drawn) [Example 17, tert-butyl 3-[[3-[(8aS)-2-[4-chloro-2-(trifluoromethyl)phenyl]-3-oxo-5,6,8,8a-tetrahydro-1H-imidazo[1,5-a]pyrazin-7-yl]-6-(2-ethoxypyridin-3-yl)pyridine-2-carbonyl]amino]pyrrolidine-1-carboxylate] is 91%.
`CCOc1ncccc1-c1ccc(N2CCN3C(=O)N(c4ccc(Cl)cc4C(F)(F)F)C[C@@H]3C2)c(C(=O)NCCS(C)(=O)=O)n1` [Example 18, 3-[(8aS)-2-[4-chloro-2-(trifluoromethyl)phenyl]-3-oxo-5,6,8,8a-tetrahydro-1H-imidazo[1,5-a]pyrazin-7-yl]-6-(2-ethoxypyridin-3-yl)-N-(2-methylsulfonylethyl)pyridine-2-carboxamide]: the inhibition at 1 µM turned out to be 100%.
The result for `CCOc1ncccc1-c1ccc(N2CCN3C(=O)N(c4ccc(Cl)cc4C(F)(F)F)C[C@@H]3C2)c(C(=O)NCCc2ccccn2)n1` [Example 19, 3-[(8aS)-2-[4-chloro-2-(trifluoromethyl)phenyl]-3-oxo-5,6,8,8a-tetrahydro-1H-imidazo[1,5-a]pyrazin-7-yl]-6-(2-ethoxypyridin-3-yl)-N-(2-pyridin-2-ylethyl)pyridine-2-carboxamide] reads 100%; that for `CCOc1ncccc1-c1ccc(N2CCN3C(=O)N(c4ccc(Cl)cc4C(F)(F)F)C[C@@H]3C2)c(C(=O)NC2CCOC2)n1` (stereo partly drawn) [Example 20, 3-[(8aS)-2-[4-chloro-2-(trifluoromethyl)phenyl]-3-oxo-5,6,8,8a-tetrahydro-1H-imidazo[1,5-a]pyrazin-7-yl]-6-(2-ethoxypyridin-3-yl)-N-(oxolan-3-yl)pyridine-2-carboxamide], 99%.

As usually defined, the inhibition is how much of the control response was suppressed.

The values above are taken from patent publication EP4714953A1, “MELANOCORTIN 2-TYPE RECEPTOR ANTAGONIST” (Scohia Pharma, Inc., priority 2023, dated 2024).
